# Measurements published in PubChem BioAssay AID1695 (PCMD, 2009).
# Activity calls are given as the source filed them. No rule for the calls is given here.
# Molecular target: dTDP-4-dehydrorhamnose reductase (Mycobacterium tuberculosis (strain ATCC 25618 / H37Rv)) + dTDP-4-dehydrorhamnose 3,5-epimerase (Mycobacterium tuberculosis (strain ATCC 25618 / H37Rv)) (UniProt P9WH09+P9WH11)
# Assay: dTDP dehydrorhamnose epimerase and reductase, coupled enzyme assay, Mycobacterium tuberculosis, IC50 (AID 1695)
# Details: coupled RmlC/RmlD enzyme assay
# dTDP-4-dehydrorhamnose reductase (Mycobacterium tuberculosis (strain ATCC 25618 / H37Rv)) + dTDP-4-dehydrorhamnose 3,5-epimerase (Mycobacterium tuberculosis (strain ATCC 25618 / H37Rv)), sequence (P9WH09 whole entry, looked up): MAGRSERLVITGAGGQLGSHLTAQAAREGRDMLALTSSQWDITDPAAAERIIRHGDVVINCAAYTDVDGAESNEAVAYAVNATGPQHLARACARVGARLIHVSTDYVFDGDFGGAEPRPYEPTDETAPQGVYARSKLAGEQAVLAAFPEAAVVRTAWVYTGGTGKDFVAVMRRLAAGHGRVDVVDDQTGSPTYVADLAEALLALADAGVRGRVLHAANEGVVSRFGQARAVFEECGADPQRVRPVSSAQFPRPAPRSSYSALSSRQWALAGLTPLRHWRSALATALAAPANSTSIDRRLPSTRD
# dTDP-4-dehydrorhamnose reductase (Mycobacterium tuberculosis (strain ATCC 25618 / H37Rv)) + dTDP-4-dehydrorhamnose 3,5-epimerase (Mycobacterium tuberculosis (strain ATCC 25618 / H37Rv)), sequence (P9WH11 whole entry, looked up): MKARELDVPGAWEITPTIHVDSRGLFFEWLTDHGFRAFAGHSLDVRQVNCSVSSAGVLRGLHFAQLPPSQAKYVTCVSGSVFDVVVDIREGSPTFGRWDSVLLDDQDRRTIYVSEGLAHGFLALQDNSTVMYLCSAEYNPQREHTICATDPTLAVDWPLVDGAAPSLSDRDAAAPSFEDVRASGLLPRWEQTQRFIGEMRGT
row,SMILES,IC50
1,COC(=O)C1=CNC=C(C(=O)OC)C1c1cccc(OC)c1,inactive
2,COC(=O)/C(=C/Nc1cccc2ccccc12)[N+](=O)[O-],inactive
3,C=CCOC(=O)C1=C(C)NC(SCC(=O)NC(=O)OCC)=C(C#N)C1c1cccnc1 (stereo unspecified),inactive
4,COc1ccccc1N=c1oc2cc(O)ccc2cc1C(N)=O,inactive
5,COc1ccc(OC)c(/C=N/NC(=O)CC2C(=O)NN=C2C)c1 (stereo unspecified),inactive
6,CC1=C(C#N)C(c2cccnc2)C2=C(CC(C)(C)CC2=O)N1 (stereo unspecified),inactive
7,CCCCCCc1cc2cc(-c3nnc(-c4ccccc4OC)o3)c(=O)oc2cc1O,inactive
8,O=C1CCC(=O)N1c1nc2nc(-c3ccccc3)cc(-c3ccccc3)n2n1,inactive
9,CCOC(=O)C1=C(CSc2nc(-c3ccccc3)ccc2C#N)OC(N)=C(C#N)C1c1cccnc1 (stereo unspecified),inactive
10,CC1=CC(c2ccccc2)n2nc(NS(=O)(=O)c3ccc(C)cc3)nc2N1 (stereo unspecified),inactive
11,CC1=C(C#N)C(c2cccnc2)C2=C(CCCC2=O)N1 (stereo unspecified),inactive
